Assay results published in patent US20130251633A1, “SYSTEMS, METHODS, AND DEVICES FOR ULTRASONIC ASSESSMENT OF CANCER AND RESPONSE TO THERAPY” (The Trustees of Columbia University in the City of New York, priority 2010, published 2013).

Key:
Assay type in all cases: in vivo, NCR nude mice
[1] = system: NGP tumors; experiment: Fluorescein-labeled lectin perfusion analysis of tumor vasculature, NGP tumors; conditions: BV-treated NGP tumors
Procedure: (§1) The identity of the neuroblastoma cell lines NGP and SK-NEP-1 were verified by STR profiling. The cell lines were stably transfected with FUW-Luciferase plasmid and were selected and maintained in 1 mg/ml neomycin. 1×10^6 cells were injected intrarenally into 4-6 week old NCR female nude mice. The resulting xenografts were monitored for growth using bioluminescence. At a threshold corresponding to 1-2 g, tumors were randomized to control or treatment groups (cohort size 5-8 mice per modality and treatment groups). BV (0.5 mg) was administered immediately after imaging on days 0 and 3. Animals were killed by CO2 inhalation at indicated time points (at day 5 after serial imaging studies, and at days 0, 1, 3, and 5 for control and lectin perfusion analyses). […] 40-μm sections were cut using a vibratome, and digital images subjected to computer-assisted quantitative analysis of tumor vessel architecture.
Quantified changes in lectin perfusion studies of tumor vasculature were consistent with changes detected by CEUS. […]
Computer-assisted image analysis was used to examine changes in specific vessel features. If vascular area is calculated from total pixels, large-diameter vessels contributed disproportionately to MVD as compared to fine capillaries. To more closely estimate numbers of vessels, total length can be calculated by skeletonizing images and then scoring these by computer. […]

[2] = system: NGP xenografts; experiment: Tumor 2-D cross-sectional area by ultrasound, NGP xenografts; conditions: NGP tumors, BV vs. control, 5 days
Procedure: (§2) The identity of the neuroblastoma cell lines NGP and SK-NEP-1 were verified by STR profiling. The cell lines were stably transfected with FUW-Luciferase plasmid and were selected and maintained in 1 mg/ml neomycin. 1×10^6 cells were injected intrarenally into 4-6 week old NCR female nude mice. The resulting xenografts were monitored for growth using bioluminescence. At a threshold corresponding to 1-2 g, tumors were randomized to control or treatment groups (cohort size 5-8 mice per modality and treatment groups). […] Animals were killed by CO2 inhalation at indicated time points (at day 5 after serial imaging studies, and at days 0, 1, 3, and 5 for control and lectin perfusion analyses). At euthanasia, mice were injected with fluorescein-labeled Lycopersicon esculentum lectin (100 μg/100 μl PBS). Vasculature was fixed by infusing 1% paraformaldehyde. 40-μm sections were cut using a vibratome, and digital images subjected to computer-assisted quantitative analysis of tumor vessel architecture.

[3] = system: SK-NEP-1 xenografts; experiment: Tumor 2-D cross-sectional area by ultrasound, SK-NEP-1 xenografts
Procedure: (§3) To evaluate vascular response (blood volume, perfusion, and molecular expression), two human cancer cell lines (SK-NEP and NGP) were implanted in nude mice and allowed to develop for five weeks. High-frequency ultrasound imaging of the tumors was performed at 40 MHz using a Visualsonics Vevo 770 during bolus tail-vein injections of size-selected microbubble suspensions. […] The bolus was […] and the concentration was 5×10^8 microbubbles/mL. The change in intensity of the ultrasound signal was used to determine the relative blood volume. Targeted microbubbles bearing cyclic RGD-peptides (or cyclic RAD-peptides for the control microbubbles) were used to measure the level of active angiogenesis. The mice were imaged at 0, 1, 3, and 5 days. Immediately after the imaging sessions on days 0 and 3, 0.2 cc of BV (2.5 mg/mL) was administered to the mice. After day 5, the mice were euthanized, and their tumors excised for ex vivo analysis.
(§4) The identity of the neuroblastoma cell lines NGP and SK-NEP-1 were verified by STR profiling. […] The resulting xenografts were monitored for growth using bioluminescence. […] 40-μm sections were cut using a vibratome, and digital images subjected to computer-assisted quantitative analysis of tumor vessel architecture.
Xenografts formed in the kidney of NCR nude mice with the human Ewing family tumor cell line SK-NEP-1 are highly sensitive to VEGF blockade therapy, while human neuroblastoma NGP cell lines are much less responsive to VEGF blockade therapy. The intrarenally implanted xenograft tumors were monitored for growth and randomly assigned to biweekly injections of anti-VEGF antibody BV or vehicle. […] To confirm the characterization of responsiveness, 2-D tumor area was measured by ultrasonography, the results of which are shown in FIG. 11.
The tumor 2-D cross-sectional area was determined from the ultrasound images using Visualsonics software. Area measurements of the tumor were calculated from the ultrasound images using a ROI that encompassed the hypoechoic region of the kidney (tumor tissue). […]

[4] = system: SK-NEP-1 tumors; experiment: CEUS perfusion imaging (relative microbubble perfusion), SK-NEP-1 tumors; conditions: SK-NEP-1 cohorts, days 0 to 5, linear mixed-effects model
Procedure: as §1, with “architecture. […]” for “architecture.”
Mice were anesthetized and placed on a physiological monitoring platform, and their tail veins were catheterized for injections using a 27-gauge, ½-inch butterfly catheter. […] Contrast enhancement was detected using background subtraction from reference videos acquired before the microbubble injection. […] Relative microbubble perfusion (rmp) was defined as the maximum signal enhancement and determined by regression of a monoexponential function to the time-intensity curve during microbubble uptake. […]

[5] = system: SK-NEP-1 tumors; experiment: Fluorescein-labeled lectin perfusion analysis of tumor vasculature, SK-NEP-1 tumors
Procedure: as §2
After binarization of the images, microvessel density (MVD) was estimated by the total number of white pixels per field. The results shown in FIGS. 10A-10B are as the mean pixel count per image +SD.
Computer-assisted image analysis was used to examine changes in specific vessel features. […] To more closely estimate numbers of vessels, total length can be calculated by skeletonizing images and then scoring these by computer. […] New vascular branches can form a dynamic and relatively VEGF-dependent element in angiogenic networks.

[6] = system: SK-NEP-1 tumors; experiment: Ultrasound molecular imaging with RGD-microbubbles (relative targeted microbubble adhesion, αvβ3 integrin), SK-NEP-1 tumors
Procedure: as §2

[7] = system: NGP tumors; experiment: CEUS perfusion imaging (relative microbubble perfusion), NGP tumors; conditions: for increase in mean rmp: BV-treated NGP tumors
Procedure: The identity of the neuroblastoma cell lines NGP and SK-NEP-1 were verified by STR profiling. The cell lines were stably transfected with FUW-Luciferase plasmid and were selected and maintained in 1 mg/ml neomycin. 1×10^6 cells were injected intrarenally into 4-6 week old NCR female nude mice. The resulting xenografts were monitored for growth using bioluminescence. At a threshold corresponding to 1-2 g, tumors were randomized to control or treatment groups (cohort size 5-8 mice per modality and treatment groups). BV (0.5 mg) was administered immediately after imaging on days 0 and 3. Animals were killed by CO2 inhalation at indicated time points (at day 5 after serial imaging studies, and at days 0, 1, 3, and 5 for control and lectin perfusion analyses). At euthanasia, mice were injected with fluorescein-labeled Lycopersicon esculentum lectin (100 μg/100 μl PBS). Vasculature was fixed by infusing 1% paraformaldehyde. 40-μm sections were cut using a vibratome, and digital images subjected to computer-assisted quantitative analysis of tumor vessel architecture.
Size-selected microbubbles described above were used for perfusion and molecular imaging. Lipid-coated, perfluorobutane-filled microbubbles were produced by mechanical agitation. For targeting, a maleimide group was included on the distal end of the polyethylene glycol group on the lipopolymer used to coat the microbubbles. Residual lipid was removed and 4.5-μm median diameter microbubbles were isolated by centrifugation. Targeted microbubbles were then conjugated to cysteine-tagged RGD (target) or RAD (control) peptides and washed again to remove residual peptide. RGD conjugation was confirmed by HPLC and MALDI-TOF. Ultrasound imaging was performed using a small-animal ultrasound scanner with a 30-MHz transducer.
Mice were anesthetized and placed on a physiological monitoring platform, and their tail veins were catheterized for injections using a 27-gauge, ½-inch butterfly catheter. The transducer was positioned at the tumor midsection, and 2-D ultrasound images were acquired using a field of view of 17×17 mm. A 50-μL bolus (2.5×10^7 microbubbles) followed by a 15-μL saline flush were injected while imaging at the maximum frame rate for respiratory gating (˜11 frames/second) and 100% power. Maximum intensity persistence (MIP) images were acquired using non-targeted RAD-microbubbles. Contrast enhancement was detected using background subtraction from reference videos acquired before the microbubble injection. […] Relative microbubble perfusion (rmp) was defined as the maximum signal enhancement and determined by regression of a monoexponential function to the time-intensity curve during microbubble uptake. […]

[8] = system: NGP tumors; experiment: Ultrasound molecular imaging with RGD-microbubbles (relative targeted microbubble adhesion, αvβ3 integrin), NGP tumors; conditions: exponential decay model, days 0-5
Procedure: as §3, with “The mice were imaged at 0, 1, 3, and 5 days. Immediately after the imaging sessions on days 0 and 3, 0.2 cc of BV (2.5 mg/mL) was administered to the mice. After day 5, the mice were euthanized, and their tumors excised for ex vivo analysis.” left out
as §4, with “architecture. […]” for “architecture.”
For molecular ultrasound imaging, a series of lower frequency pulses was applied to destroy microbubbles in the field of view 10 minutes after microbubble injection. […] The relative targeted microbubble adhesion (rtma) was measured as the difference in the linearized grayscale pixel intensities within the ROI for targeted RGD-microbubbles, minus that for RAD-microbubbles. […]

**Q.** Which results are given for bevacizumab [BV]?
**A.** microvessel density (MVD) compared to day 0 controls [1]: did not change; tumor growth [2]: unaffected; changes in tumor size ([3]; SK-NEP tumor-bearing mice, 0.2 cc BV (2.5 mg/mL) on days 0 and 3): no significant changes; change in tumor 2-D cross-sectional area (ultrasound) ([3]; SK-NEP-1 mice, BV 0.5 mg on days 0 and 3, over the 5 day period): −5%; tumor growth in comparison to control ([3]; SK-NEP-1 xenografts, days 3 and 5): significantly arrested tumor growth; slopes of the linear regression of rmp, BV-treated vs control [4]: statistically different; decrease in microvessel density (MVD) compared to day 0 controls ([5]; BV-treated SK-NEP-1 tumors, day 1): 66%; total vessel length ([5]; SK-NEP-1, days 1, 3, 5): significantly decreased; total vascular branch number ([5]; SK-NEP-1, days 3 and 5): significantly decreased; reduction of the difference in image intensity (before/after destruction pulse) ([6]; BV-responsive tumors, RGD microbubbles, after 3 days following treatment): > 95%; decrease in mean rtma ([6]; BV-treated SK-NEP-1, by day 5): 99±5%; difference in rtma decay rates, BV-treated vs control ([6]; SK-NEP-1, exponential decay model, days 0-5): statistically different; αvβ3 integrin binding of RGD-bearing microbubbles in the tumor region ([6]; treated SK-NEP mice, three days following BV administration): significant drop; increase in mean rmp ([7]; by day 1): 38±21%; increase in mean rmp ([7]; by day 3): 57±48%; increase in mean rmp ([7]; by day 5): 105±41%; slopes of the linear regression of rmp, BV-treated vs control ([7]; NGP cohorts, days 0 to 5, linear mixed-effects model): no difference; difference in rtma decay rates, BV-treated vs control [8]: no difference was observed
